Experimental data published in EP4603105A1, “PHARMACEUTICAL COMPOSITION CONTAINING CYCLIC COMPOUND HAVING SELECTIVE KRAS INHIBITORY EFFECT AGAINST HRAS AND NRAS” (CHUGAI SEIYAKU KABUSHIKI KAISHA, priority 2022, dated 2024).
*1 amine or outer side, *2 acyl side, *3 side chain or, on linkers, in order; H or OH if unused. Where a SMILES comes first, the peptide text is derived from it. Bridges are numbered along the chain shown (N, C = ends). [ ]: non-standard residue; d: D form. The star is where a group is joined. hPhe(3-Cl-4-CF3) = N[C@@H](CCc1ccc(C(F)(F)F)c(Cl)c1)C(=O)O; NPrPhe(4-CF3) = CCCN[C@@H](Cc1ccc(C(F)(F)F)cc1)C(=O)O; X50 = C=CCN([C@@H](Cc1ccc(C)cc1)C(=O)[*:2])[*:1]; NEtPhe(4-Me) = CCN[C@@H](Cc1ccc(C)cc1)C(=O)O; NMeGly(cPent) = CN[C@H](C(=O)O)C1CCCC1; Pro(4S-Me) = C[C@@H]1CN[C@H](C(=O)O)C1; NMeD = CN[C@@H](CC(=O)O)C(=O)O; NMeL = CN[C@@H](CC(C)C)C(=O)O; Ac6c = NC1(C(=O)O)CCCCC1; Morpholide = C1CN(*)CCO1; NMeA = CN[C@@H](C)C(=O)O; Ac5c = NC1(C(=O)O)CCCC1; Aze = O=C(O)[C@@H]1CCN1; Sar = CNCC(=O)O

Key:
[1] = target: GDP-bound NRAS wild-type protein (Homo sapiens, UniProt P01111); test: Binding to NRAS by surface plasmon resonance (SPR), KD and KD ratio to KRAS
Sequence of GDP-bound NRAS wild-type protein (P01111 whole entry): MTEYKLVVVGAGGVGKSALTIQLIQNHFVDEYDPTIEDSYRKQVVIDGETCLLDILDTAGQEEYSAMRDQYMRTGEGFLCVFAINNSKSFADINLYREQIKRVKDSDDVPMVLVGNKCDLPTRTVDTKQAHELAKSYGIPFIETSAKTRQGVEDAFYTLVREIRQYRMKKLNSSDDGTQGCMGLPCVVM
Summary of the method: (§1)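 Single-cycle kinetics on GDP-loaded biotin-Avi RAS captured to ~100–300 RU; 75 s ascending injections, 100 µL/min, 30°C. HBS pH 7.4 + 10 mM MgCl2/10 µM GDP/4% DMSO. 1:1 fit, KD.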

HRAS wild-type protein = HRAS wild-type protein (Homo sapiens, UniProt P01112); test: Binding to HRAS by surface plasmon resonance (SPR), KD and KD ratio to KRAS
Sequence of HRAS wild-type protein (P01112 whole entry): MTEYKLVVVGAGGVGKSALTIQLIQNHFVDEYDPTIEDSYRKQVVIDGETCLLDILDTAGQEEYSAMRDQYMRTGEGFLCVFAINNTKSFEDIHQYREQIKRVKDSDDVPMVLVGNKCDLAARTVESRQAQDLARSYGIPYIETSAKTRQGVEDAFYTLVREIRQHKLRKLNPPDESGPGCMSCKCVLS
Summary of the method: as §1

[2] = test system: human lung cancer strain NCI-H441; format: cell-based
Summary of the method: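 Proliferation was scored by […] measured after the reagent was added to cultures kept at 37°C in 5% carbon dioxide.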

[3] = ratio of KD value for GDP-bound NRAS wild-type protein to KD value for KRAS (SPR)
[4] = ratio of KD value for HRAS wild-type protein to KD value for KRAS (SPR)
[5] = ratio of KD for GDP-bound NRAS wild-type protein to KD for KRAS
[6] = ratio of KD for HRAS wild-type protein to KD for KRAS
[7] = ratio of the KD value with respect to GDP-bound NRAS wild-type protein to the KD value with respect to KRAS
[8] = ratio of the KD value with respect to HRAS wild-type protein to the KD value with respect to KRAS

SMILES	NRAS /KRAS [1, 3]	HRAS /KRAS (HRAS wild-type protein; [4])	IC50 [2]	NRAS /KRAS [1, 5]	HRAS /KRAS (HRAS wild-type protein; [6])	NRAS /KRAS [1, 7]	HRAS /KRAS (HRAS wild-type protein; [8])
CCO[C@@H]1C[C@H]2C(=O)NC3(CC(C)(C)C3)C(=O)N(C)[C@@H](C3CCCC3)C(=O)N(C)[C@H](C(=O)N(C)C)CC(=O)N(CC)[C@@H](CC(C)C)C(=O)N[C@@H]([C@@H](C)CC)C(=O)NCC(=O)N(C)[C@H]3C/C=C\CCN(C3=O)[C@@H](Cc3ccc(C(F)(F)F)cc3)C(=O)N(C)CC(=O)N[C@@H](CCc3cc(F)c(C(F)(F)F)c(F)c3)C(=O)N2C1 [PP1772]	B (a compound having 3 or more and less than 10 is denoted as B)	B (a compound having 3 or more and less than 10 is denoted as B)	0.0134 µM				
CC[C@H](C)[C@@H]1NC(=O)[C@H](C)N(C)C(=O)C[C@@H](C(=O)N(C)C)N(C)C(=O)[C@H](C2CCCC2)N(C)C(=O)C2(CC(C)(C)C2)NC(=O)[C@@H]2CC(F)(F)CN2C(=O)[C@H](CCc2cc(F)c(C(F)(F)F)c(F)c2)NC(=O)CN(C)C(=O)[C@H](Cc2ccc(C(F)(F)F)cc2)N2CC/C=C\C[C@@H](C2=O)N(C)C(=O)CN(C)C1=O [PP1707]	AA (a compound having 20 or more is denoted as AA)	A (a compound having 10 or more and less than 20 is denoted as A)	0.0074 µM				
C=CCN1C(=O)CN(C)C(=O)CN(C)C(=O)[C@H]([C@@H](C)CC)NC(=O)[C@H](CC(C)C)N(C)C(=O)C[C@@H](C(=O)N2CCOCC2)N(C)C(=O)[C@H](C2CCCC2)N(C)C(=O)C2(CCCC2)NC(=O)[C@@H]2CCCN2C(=O)[C@H](CCc2ccc(C(F)(F)F)c(Cl)c2)NC(=O)CN(C)C(=O)[C@@H]1Cc1ccc(C)cc1 [PP0100] ([NMeL]I[Sar][Sar][X50][Sar][hPhe(3-Cl-4-CF3)]P[Ac5c][NMeGly(cPent)][NMeD]-Morpholide; lactam N-11)			0.0243 µM	B (a compound having 3 or more and less than 10 is denoted as B)	C (A compound having a KD ratio of 0.1 or more and less than 3 is denoted as C)		
CCO[C@@H]1C[C@H]2C(=O)NC3(CCC3)C(=O)N(C)[C@@H](C3CCCC3)C(=O)N(C)[C@H](C(=O)N(C)C)CC(=O)N(C)[C@@H](CSC)C(=O)N[C@@H]([C@@H](C)CC)C(=O)N(C)CC(=O)N(C)[C@H]3C/C=C\CCN(C3=O)[C@@H](Cc3ccc(C(F)(F)F)cc3)C(=O)N(C)CC(=O)N[C@@H](CCc3cc(F)c(C(F)(F)F)c(F)c3)C(=O)N2C1 [PP1119]			0.0255 µM	A (a compound having 10 or more and less than 20 is denoted as A)	A (a compound having 10 or more and less than 20 is denoted as A)		
CC[C@H](C)[C@@H]1NC(=O)[C@H](CC(C)C)N(C)C(=O)C[C@@H](C(=O)N2CCOCC2)N(C)C(=O)[C@H](C2CCCC2)N(C)C(=O)C2(CC(F)(F)C2)NC(=O)[C@@H]2CCCN2C(=O)[C@H](CCc2cc(F)c(C(F)(F)F)c(F)c2)NC(=O)CN(C)C(=O)[C@H](Cc2ccc(C(F)(F)F)cc2)N2CCCC[C@@H](C2=O)N(C)C(=O)CN(C)C1=O [PP0562]			0.0044 µM			B (a compound having 3 or more and less than 10 is denoted as B)	B (a compound having 3 or more and less than 10 is denoted as B)
CCCN1C(=O)CN(C)C(=O)CNC(=O)[C@H]([C@@H](C)CC)NC(=O)[C@H](CC(C)C)N(C)C(=O)C[C@@H](C(=O)N(C)C)NC(=O)[C@H](C2CCCC2)N(C)C(=O)C2(CCCC2)NC(=O)[C@@H]2CCCN2C(=O)[C@H](CCc2ccc(C(F)(F)F)c(Cl)c2)NC(=O)CN(C)C(=O)[C@@H]1Cc1ccc(C(F)(F)F)cc1 [PP0361] ([NMeL]IG[Sar][NPrPhe(4-CF3)][Sar][hPhe(3-Cl-4-CF3)]P[Ac5c][NMeGly(cPent)]D-NMe2; lactam N-11)			0.069 µM	B (a compound having 3 or more and less than 10 is denoted as B)	C (A compound having a KD ratio of 0.1 or more and less than 3 is denoted as C)		
CCO[C@@H]1C[C@H]2C(=O)NC3(CCC3)C(=O)N(C)[C@@H](CC(F)F)C(=O)N(C)[C@H](C(=O)N3CCOCC3)CC(=O)N(C)[C@@H](CC(C)C)C(=O)N[C@@H]([C@@H](C)CC)C(=O)N(C)CC(=O)N(C)[C@H]3CCCCCN(C3=O)[C@@H](Cc3ccc(C(F)(F)F)cc3)C(=O)N(C)CC(=O)N[C@@H](CCc3cc(F)c(C(F)(F)F)c(F)c3)C(=O)N2C1 [PP0822]			1.99 µM	B (a compound having 3 or more and less than 10 is denoted as B)	B (a compound having 3 or more and less than 10 is denoted as B)		
CCC[C@H]1C(=O)N[C@@H]([C@@H](C)CC)C(=O)N(C)CC(=O)N(C)[C@H]2C/C=C\CCN(C2=O)[C@@H](Cc2ccc(C)cc2)C(=O)N(C)CC(=O)N[C@@H](CCc2ccc(C(F)(F)F)c(Cl)c2)C(=O)N2C[C@H](OCC)C[C@H]2C(=O)NC2(CC(C)(C)C2)C(=O)N(C)[C@@H](CC(C)(C)C)C(=O)N(C)[C@H](C(=O)N(C)C)CC(=O)N1C [PP2230]			0.007 µM			A (a compound having 10 or more and less than 20 is denoted as A)	A (a compound having 10 or more and less than 20 is denoted as A)
CC[C@H](C)[C@@H]1NC(=O)[C@H](CC(F)F)N(C)C(=O)C[C@@H](C(=O)N(C)CC)N(C)C(=O)[C@H](C2CCCC2)N(C)C(=O)C2(CC(C)(C)C2)NC(=O)[C@@H]2C[C@@H](C)CN2C(=O)[C@H](CCc2ccc(C(F)(F)F)c(Cl)c2)NC(=O)CN(C)C(=O)[C@H](Cc2ccc(C)cc2)N2CC/C=C\C[C@@H](C2=O)N(C)C(=O)CN(C)C1=O [PP1837]	A (a compound having 10 or more and less than 20 is denoted as A)	A (a compound having 10 or more and less than 20 is denoted as A)	0.0156 µM				
CCO[C@@H]1C[C@H]2C(=O)N(C)C3(CCCC3)C(=O)N(C)[C@@H](C3CCCC3)C(=O)N(C)[C@H](C(=O)N(C)C)CC(=O)N(C)[C@@H](CC)C(=O)N[C@@H]([C@@H](C)CC)C(=O)N(C)CC(=O)N(C)[C@H]3C/C=C\CCN(C3=O)[C@@H](Cc3ccc(C)cc3)C(=O)N(C)CC(=O)N[C@@H](CCc3cc(F)c(C(F)(F)F)c(F)c3)C(=O)N2C1 [PP1806]	A (a compound having 10 or more and less than 20 is denoted as A)	B (a compound having 3 or more and less than 10 is denoted as B)	0.004 µM				
CCO[C@@H]1C[C@H]2C(=O)NC3(CCC3)C(=O)N(C)[C@@H](C3CCCC3)C(=O)N(C)[C@H](C(=O)N(C)C)CC(=O)N(C)[C@@H](CC)C(=O)N[C@@H]([C@@H](C)CC)C(=O)N(C)CC(=O)N(C)[C@H]3CCCCCN(C3=O)[C@@H](Cc3ccc(C(F)(F)F)cc3)C(=O)N(C)CC(=O)N[C@@H](CCc3c(F)c(F)c(C(F)(F)F)c(F)c3F)C(=O)N2C1 [PP0891]			0.154 µM	B (a compound having 3 or more and less than 10 is denoted as B)	B (a compound having 3 or more and less than 10 is denoted as B)		
CCCN1C(=O)CN(C)C(=O)CN(C)C(=O)[C@H]([C@@H](C)CC)NC(=O)[C@H](CC(C)C)N(C)C(=O)C[C@@H](C(=O)N2CCOCC2)N(C)C(=O)[C@H](C2CCCC2)N(C)C(=O)C2(CCCCC2)NC(=O)[C@@H]2CCCN2C(=O)[C@H](CCc2ccc(C(F)(F)F)c(Cl)c2)NC(=O)CN(C)C(=O)[C@@H]1Cc1ccc(C(F)(F)F)cc1 [PP0231] ([NMeL]I[Sar][Sar][NPrPhe(4-CF3)][Sar][hPhe(3-Cl-4-CF3)]P[Ac6c][NMeGly(cPent)][NMeD]-Morpholide; lactam N-11)			0.0131 µM	B (a compound having 3 or more and less than 10 is denoted as B)	C (A compound having a KD ratio of 0.1 or more and less than 3 is denoted as C)		
CCO[C@@H]1C[C@H]2C(=O)NC3(CC(C)(C)C3)C(=O)N(C)[C@@H](C(CC)CC)C(=O)N(C)[C@H](C(=O)N(C)C)CC(=O)N(C)[C@@H](CC)C(=O)N[C@@H]([C@@H](C)CC)C(=O)N(C)CC(=O)N(C)[C@H]3C/C=C\CCN(C3=O)[C@@H](Cc3ccc(C(F)(F)F)cc3)C(=O)N(C)CC(=O)N[C@@H](CCc3ccc(C(F)(F)F)c(OC)c3)C(=O)N2C1 [PP2066]			0.0032 µM			A (a compound having 10 or more and less than 20 is denoted as A)	B (a compound having 3 or more and less than 10 is denoted as B)
CC[C@H](C)[C@@H]1NC(=O)[C@H](C)N(C)C(=O)C[C@@H](C(=O)N2CCOCC2)N(C)C(=O)[C@H](C2CCCC2)N(C)C(=O)C2(CCCC2)NC(=O)[C@@H]2CCCN2C(=O)[C@H](CCc2ccc(C(F)(F)F)c(Cl)c2)NC(=O)CN(C)C(=O)[C@H](Cc2ccc(C)cc2)N(CC)C(=O)[C@@H]2CCN2C(=O)[C@H](C)N(C)C1=O [PP0007] ([NMeA]I[NMeA][Aze][NEtPhe(4-Me)][Sar][hPhe(3-Cl-4-CF3)]P[Ac5c][NMeGly(cPent)][NMeD]-Morpholide; lactam N-11)			0.0048 µM	C (A compound having a KD ratio of 0.1 or more and less than 3 is denoted as C)	C (A compound having a KD ratio of 0.1 or more and less than 3 is denoted as C)		
CCCN1C(=O)[C@@H]2CCN2C(=O)CN(C)C(=O)[C@H]([C@@H](C)CC)NC(=O)[C@H](CC(C)C)N(C)C(=O)C[C@@H](C(=O)N2CCOCC2)N(C)C(=O)[C@H](C2CCCC2)N(C)C(=O)C2(CCCC2)NC(=O)[C@@H]2C[C@H](C)CN2C(=O)[C@H](CCc2ccc(C(F)(F)F)c(Cl)c2)NC(=O)CN(C)C(=O)[C@@H]1Cc1ccc(C(F)(F)F)cc1 [PP0457] ([NMeL]I[Sar][Aze][NPrPhe(4-CF3)][Sar][hPhe(3-Cl-4-CF3)][Pro(4S-Me)][Ac5c][NMeGly(cPent)][NMeD]-Morpholide; lactam N-11)			0.0121 µM			C (A compound having a KD ratio of 0.1 or more and less than 3 is denoted as C)	B (a compound having 3 or more and less than 10 is denoted as B)
